Data on three compounds can be found in patent US10870647B2, “Imidazopyridine derivative, method for preparing same, and pharmaceutical composition containing same as active ingredient for preventing or treating cancer” (DAEGU-GYEONGBUK MEDICAL INNOVATION FOUNDATION, priority 2016, dated 2020).

Common to all, as to assay: Kinase selectivity, scanMAX Kinase assay panel (DiscoverX), % control at 1 uM
Holding throughout (assay type): binding

Test [1] has as its target T1, scanMAX Kinase assay panel (Homo sapiens, UniProt O14976).
T1 construct: purchased DiscoverX
T1 sequence (O14976 1-1311): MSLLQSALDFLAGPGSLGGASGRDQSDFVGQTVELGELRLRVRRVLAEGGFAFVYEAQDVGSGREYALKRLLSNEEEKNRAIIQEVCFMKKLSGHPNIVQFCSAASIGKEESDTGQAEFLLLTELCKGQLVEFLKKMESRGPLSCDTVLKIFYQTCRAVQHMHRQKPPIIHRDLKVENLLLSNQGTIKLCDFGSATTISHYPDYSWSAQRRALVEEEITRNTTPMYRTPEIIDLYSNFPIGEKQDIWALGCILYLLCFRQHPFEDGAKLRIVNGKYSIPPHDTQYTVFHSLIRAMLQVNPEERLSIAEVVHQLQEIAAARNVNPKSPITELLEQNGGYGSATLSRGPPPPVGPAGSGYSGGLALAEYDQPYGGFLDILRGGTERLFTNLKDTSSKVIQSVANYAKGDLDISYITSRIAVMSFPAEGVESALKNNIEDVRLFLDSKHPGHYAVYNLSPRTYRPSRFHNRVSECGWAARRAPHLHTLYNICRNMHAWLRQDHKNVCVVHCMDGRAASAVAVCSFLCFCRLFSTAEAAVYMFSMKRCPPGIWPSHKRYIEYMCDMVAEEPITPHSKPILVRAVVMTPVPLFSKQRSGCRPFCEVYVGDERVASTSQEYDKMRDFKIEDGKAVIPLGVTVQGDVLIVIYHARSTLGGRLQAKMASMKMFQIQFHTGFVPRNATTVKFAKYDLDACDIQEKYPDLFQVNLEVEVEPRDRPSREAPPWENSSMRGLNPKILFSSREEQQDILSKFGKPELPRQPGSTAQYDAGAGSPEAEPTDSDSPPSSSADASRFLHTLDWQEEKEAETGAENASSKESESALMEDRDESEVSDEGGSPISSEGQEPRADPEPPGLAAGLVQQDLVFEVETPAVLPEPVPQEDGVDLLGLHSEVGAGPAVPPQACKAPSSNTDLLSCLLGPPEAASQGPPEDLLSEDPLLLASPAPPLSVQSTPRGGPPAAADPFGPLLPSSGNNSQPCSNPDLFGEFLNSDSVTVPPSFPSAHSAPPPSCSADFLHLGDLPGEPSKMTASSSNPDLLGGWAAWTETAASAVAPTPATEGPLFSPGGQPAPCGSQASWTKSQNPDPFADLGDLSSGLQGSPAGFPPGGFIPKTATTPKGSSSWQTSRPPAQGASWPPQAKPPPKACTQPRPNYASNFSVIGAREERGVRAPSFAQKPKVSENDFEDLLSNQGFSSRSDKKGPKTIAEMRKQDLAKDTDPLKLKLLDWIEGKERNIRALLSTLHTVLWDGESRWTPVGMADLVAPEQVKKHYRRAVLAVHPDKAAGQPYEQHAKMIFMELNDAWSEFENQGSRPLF
As to conditions: GAK; 1 uM; read-out: Percent Control (%). The procedure, abridged:
(§1)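 Each kinase was first exposed to the test compound at 1 uM in DMSO. Signal was then normalised to positive and negative controls to give % control. Finally, any enzyme showing <35% control was judged inhibited.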

The target of test [2] is T2, scanMAX Kinase assay panel (Homo sapiens, UniProt P09619).
T2 construct: purchased DiscoverX
As to conditions: PDGFRB; 1 uM; read-out: Percent Control (%). The procedure, abridged:
as §1

The target of test [3] is T3, scanMAX Kinase assay panel (Homo sapiens, UniProt P19784).
T3 construct: purchased DiscoverX
T3 sequence (P19784 whole entry): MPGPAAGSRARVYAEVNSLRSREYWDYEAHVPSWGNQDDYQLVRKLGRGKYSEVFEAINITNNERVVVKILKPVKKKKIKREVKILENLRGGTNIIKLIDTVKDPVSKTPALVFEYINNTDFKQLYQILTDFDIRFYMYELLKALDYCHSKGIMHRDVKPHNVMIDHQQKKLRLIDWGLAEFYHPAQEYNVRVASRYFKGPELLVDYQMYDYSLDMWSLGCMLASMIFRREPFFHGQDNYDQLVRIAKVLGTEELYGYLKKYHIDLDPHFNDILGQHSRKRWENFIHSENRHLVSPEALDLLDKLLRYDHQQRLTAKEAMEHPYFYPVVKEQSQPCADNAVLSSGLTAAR
The settings on record: CSNK2A2; 1 uM; read-out: Percent Control (%). Put shortly:
as §1

Test [4] has as its target T4, scanMAX Kinase assay panel (Homo sapiens, UniProt P31152).
T4 construct: purchased DiscoverX
The settings on record: ERK4; 1 uM; read-out: Percent Control (%). Put shortly: as §1

Test [5] deals with T5, scanMAX Kinase assay panel (Homo sapiens, UniProt P53778).
T5 construct: purchased DiscoverX
T5 sequence (P53778 1-367): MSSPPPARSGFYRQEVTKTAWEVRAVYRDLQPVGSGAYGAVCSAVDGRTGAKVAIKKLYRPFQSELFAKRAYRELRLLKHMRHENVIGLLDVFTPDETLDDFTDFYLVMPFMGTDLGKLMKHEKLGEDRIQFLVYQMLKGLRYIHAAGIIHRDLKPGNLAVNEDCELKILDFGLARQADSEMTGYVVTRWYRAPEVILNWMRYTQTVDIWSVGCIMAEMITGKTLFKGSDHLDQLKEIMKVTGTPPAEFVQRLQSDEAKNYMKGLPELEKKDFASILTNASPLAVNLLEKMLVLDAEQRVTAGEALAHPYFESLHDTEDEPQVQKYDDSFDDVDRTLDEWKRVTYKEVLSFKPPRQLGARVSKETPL
As to conditions: p38-gamma; 1 uM; read-out: Percent Control (%). Put shortly:
as §1

The target of test [6] is T6, scanMAX Kinase assay panel (Homo sapiens, UniProt P80192).
T6 construct: purchased DiscoverX
T6 sequence (P80192 whole entry): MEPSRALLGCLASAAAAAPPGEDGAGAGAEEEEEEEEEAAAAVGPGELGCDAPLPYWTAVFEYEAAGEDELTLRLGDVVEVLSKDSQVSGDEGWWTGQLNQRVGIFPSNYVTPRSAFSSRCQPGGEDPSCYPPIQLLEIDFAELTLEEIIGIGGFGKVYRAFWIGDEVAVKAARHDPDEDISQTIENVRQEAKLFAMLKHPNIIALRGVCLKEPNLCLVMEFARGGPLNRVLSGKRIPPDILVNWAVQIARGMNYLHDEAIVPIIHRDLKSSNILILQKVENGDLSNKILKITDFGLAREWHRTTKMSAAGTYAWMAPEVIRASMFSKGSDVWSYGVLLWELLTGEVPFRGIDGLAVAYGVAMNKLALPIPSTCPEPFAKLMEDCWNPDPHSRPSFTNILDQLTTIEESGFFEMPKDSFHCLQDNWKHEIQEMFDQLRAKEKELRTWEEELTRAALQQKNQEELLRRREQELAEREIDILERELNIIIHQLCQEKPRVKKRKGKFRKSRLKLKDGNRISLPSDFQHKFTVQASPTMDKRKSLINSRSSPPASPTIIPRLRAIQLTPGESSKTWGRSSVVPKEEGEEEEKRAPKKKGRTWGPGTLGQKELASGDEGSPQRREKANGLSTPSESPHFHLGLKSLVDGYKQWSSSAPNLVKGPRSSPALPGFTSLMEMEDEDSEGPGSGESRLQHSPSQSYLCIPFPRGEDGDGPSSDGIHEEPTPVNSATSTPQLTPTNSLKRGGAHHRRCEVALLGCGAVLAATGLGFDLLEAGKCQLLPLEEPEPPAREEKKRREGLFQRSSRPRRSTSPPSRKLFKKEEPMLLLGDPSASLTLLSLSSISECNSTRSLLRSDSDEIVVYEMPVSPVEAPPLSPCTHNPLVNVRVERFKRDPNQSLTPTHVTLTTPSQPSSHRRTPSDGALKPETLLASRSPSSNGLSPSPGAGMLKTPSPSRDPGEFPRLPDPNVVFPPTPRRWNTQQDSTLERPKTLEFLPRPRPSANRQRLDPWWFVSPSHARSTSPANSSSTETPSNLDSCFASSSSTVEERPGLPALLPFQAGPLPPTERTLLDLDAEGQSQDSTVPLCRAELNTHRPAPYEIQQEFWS
The settings on record: MLK1; 1 uM; read-out: Percent Control (%). The procedure, abridged:
as §1

The target of test [7] is T7, scanMAX Kinase assay panel (Homo sapiens, UniProt Q15303).
T7 construct: purchased DiscoverX
T7 sequence (Q15303 26-1308): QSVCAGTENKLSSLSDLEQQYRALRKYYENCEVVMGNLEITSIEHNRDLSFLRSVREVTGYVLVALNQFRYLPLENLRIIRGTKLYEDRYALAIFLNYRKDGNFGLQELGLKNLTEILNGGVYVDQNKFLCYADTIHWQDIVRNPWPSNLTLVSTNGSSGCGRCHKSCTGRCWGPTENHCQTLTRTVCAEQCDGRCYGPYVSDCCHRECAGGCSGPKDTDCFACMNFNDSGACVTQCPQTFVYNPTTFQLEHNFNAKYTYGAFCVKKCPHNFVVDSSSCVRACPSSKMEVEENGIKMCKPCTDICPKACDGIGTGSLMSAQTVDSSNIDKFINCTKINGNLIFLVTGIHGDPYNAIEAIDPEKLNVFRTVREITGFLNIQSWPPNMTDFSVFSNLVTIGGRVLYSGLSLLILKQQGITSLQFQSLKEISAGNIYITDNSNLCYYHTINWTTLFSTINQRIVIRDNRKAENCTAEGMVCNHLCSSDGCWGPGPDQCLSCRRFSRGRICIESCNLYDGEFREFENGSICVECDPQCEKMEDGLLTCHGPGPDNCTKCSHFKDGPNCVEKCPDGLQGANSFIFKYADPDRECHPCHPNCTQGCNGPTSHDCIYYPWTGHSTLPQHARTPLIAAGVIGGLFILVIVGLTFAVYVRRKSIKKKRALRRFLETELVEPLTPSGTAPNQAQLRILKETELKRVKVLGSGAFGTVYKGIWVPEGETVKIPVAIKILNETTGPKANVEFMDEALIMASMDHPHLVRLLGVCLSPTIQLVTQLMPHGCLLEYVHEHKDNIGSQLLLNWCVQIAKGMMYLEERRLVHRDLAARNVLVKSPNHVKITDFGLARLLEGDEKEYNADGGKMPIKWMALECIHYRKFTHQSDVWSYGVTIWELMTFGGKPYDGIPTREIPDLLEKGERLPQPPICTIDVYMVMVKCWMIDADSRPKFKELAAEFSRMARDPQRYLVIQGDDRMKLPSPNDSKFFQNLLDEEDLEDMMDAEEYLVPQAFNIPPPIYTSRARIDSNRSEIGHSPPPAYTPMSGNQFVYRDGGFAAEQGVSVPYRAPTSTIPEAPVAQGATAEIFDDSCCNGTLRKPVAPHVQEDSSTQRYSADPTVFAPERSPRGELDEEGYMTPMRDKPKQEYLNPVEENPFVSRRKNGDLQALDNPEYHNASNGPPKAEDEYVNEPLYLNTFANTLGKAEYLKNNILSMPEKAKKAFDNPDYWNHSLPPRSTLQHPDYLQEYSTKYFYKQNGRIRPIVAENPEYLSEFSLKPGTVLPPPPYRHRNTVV
The settings on record: ERBB4; 1 uM; read-out: Percent Control (%). Put shortly:
as §1

Test [8] concerns the target T8, scanMAX Kinase assay panel (Homo sapiens, UniProt Q9P2K8, S808G).
T8 construct: purchased DiscoverX
As to conditions: GCN2 (Kin.Dom.2, S808G); 1 uM; read-out: Percent Control (%). The procedure, abridged:
as §1

In test [9] the target is T9, scanMAX Kinase assay panel (Homo sapiens, UniProt Q9UQB9).
T9 construct: purchased DiscoverX
T9 sequence (Q9UQB9 1-309): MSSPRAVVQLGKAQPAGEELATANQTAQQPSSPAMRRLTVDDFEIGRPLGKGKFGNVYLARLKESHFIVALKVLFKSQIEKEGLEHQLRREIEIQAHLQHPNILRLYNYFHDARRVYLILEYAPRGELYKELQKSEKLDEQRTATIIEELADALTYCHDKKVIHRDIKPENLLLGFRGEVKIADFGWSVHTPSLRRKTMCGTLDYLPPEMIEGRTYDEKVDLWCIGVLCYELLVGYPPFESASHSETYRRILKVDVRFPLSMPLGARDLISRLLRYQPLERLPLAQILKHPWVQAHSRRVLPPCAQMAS
As to conditions: AURKC; 1 uM; read-out: Percent Control (%). The procedure, abridged:
as §1

T4 sequence (P31152 whole entry): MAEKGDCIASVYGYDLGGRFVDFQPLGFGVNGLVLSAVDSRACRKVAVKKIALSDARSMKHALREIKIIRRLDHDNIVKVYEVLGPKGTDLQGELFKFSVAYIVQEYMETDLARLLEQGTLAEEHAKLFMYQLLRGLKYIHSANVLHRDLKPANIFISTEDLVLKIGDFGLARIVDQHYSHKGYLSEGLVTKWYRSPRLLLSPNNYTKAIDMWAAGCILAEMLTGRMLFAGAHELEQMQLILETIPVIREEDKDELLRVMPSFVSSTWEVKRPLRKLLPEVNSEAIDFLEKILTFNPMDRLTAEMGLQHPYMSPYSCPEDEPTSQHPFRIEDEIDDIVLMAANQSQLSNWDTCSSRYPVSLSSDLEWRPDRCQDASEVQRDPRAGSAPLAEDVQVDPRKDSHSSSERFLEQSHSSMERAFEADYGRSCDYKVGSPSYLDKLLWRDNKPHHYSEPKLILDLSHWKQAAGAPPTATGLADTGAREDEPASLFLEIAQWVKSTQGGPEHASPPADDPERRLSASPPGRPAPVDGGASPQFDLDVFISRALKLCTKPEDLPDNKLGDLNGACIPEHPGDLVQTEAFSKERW
T8 sequence (Q9P2K8 whole entry S808G): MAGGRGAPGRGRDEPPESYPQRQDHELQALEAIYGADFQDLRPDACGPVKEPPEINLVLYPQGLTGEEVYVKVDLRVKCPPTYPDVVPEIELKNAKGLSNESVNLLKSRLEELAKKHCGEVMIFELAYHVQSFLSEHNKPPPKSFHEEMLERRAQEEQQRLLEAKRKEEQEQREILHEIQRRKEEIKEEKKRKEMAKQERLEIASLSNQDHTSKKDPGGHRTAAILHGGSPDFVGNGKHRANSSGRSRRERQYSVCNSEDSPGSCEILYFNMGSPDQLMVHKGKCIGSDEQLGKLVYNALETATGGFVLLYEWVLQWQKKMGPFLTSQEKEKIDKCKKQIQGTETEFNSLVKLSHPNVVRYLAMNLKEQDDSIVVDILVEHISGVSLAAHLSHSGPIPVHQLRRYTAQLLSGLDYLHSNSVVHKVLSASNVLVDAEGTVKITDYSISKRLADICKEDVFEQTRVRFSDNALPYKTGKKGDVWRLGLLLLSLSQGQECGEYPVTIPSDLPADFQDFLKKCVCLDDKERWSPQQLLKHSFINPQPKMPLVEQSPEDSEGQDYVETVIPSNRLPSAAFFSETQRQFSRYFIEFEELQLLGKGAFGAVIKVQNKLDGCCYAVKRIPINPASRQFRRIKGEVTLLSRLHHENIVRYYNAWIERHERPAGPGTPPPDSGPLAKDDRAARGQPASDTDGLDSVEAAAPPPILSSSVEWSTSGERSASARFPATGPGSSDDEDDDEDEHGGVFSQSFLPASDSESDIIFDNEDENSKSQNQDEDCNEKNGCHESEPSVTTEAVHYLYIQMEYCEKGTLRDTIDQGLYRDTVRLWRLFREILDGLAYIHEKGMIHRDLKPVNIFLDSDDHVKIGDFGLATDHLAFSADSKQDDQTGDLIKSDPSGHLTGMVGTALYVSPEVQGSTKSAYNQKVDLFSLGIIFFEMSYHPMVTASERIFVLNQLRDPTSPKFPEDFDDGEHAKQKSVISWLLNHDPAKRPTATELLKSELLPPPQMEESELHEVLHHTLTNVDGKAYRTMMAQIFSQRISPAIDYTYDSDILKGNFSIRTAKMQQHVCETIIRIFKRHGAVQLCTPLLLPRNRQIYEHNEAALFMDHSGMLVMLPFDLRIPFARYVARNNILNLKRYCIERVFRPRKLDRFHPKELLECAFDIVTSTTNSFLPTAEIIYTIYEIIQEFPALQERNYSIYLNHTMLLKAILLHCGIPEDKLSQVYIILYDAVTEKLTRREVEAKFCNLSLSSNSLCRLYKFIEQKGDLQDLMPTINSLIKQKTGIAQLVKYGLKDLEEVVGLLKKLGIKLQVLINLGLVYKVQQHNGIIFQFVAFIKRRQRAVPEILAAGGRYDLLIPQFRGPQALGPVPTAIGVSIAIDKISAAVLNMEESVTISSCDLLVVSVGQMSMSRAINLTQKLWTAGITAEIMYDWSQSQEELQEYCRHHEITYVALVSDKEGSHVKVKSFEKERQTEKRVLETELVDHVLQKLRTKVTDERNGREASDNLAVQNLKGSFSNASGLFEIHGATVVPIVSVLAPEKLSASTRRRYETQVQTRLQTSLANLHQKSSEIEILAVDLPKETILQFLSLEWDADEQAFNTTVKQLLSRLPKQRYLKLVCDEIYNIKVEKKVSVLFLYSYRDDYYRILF

In the case of `Cc1ccc(C(=O)Nc2ccc(CN3CCN(C)CC3)c(C(F)(F)F)c2)cc1C#Cc1cnc2c(Nc3cnn(C)c3)cccn12` [Example 1, 4-methyl-3-((8-((1-methyl-1H-pyrazol-4-yl)amino)imidazo[1,2-a]pyridin-3-yl)ethynyl)-N-(4-((4-methylpiperazin-1-yl)methyl)-3-(trifluoromethyl)phenyl)benzamide], the remaining binding at 1 µM in [1] came out at 7%; in test [2], 0%; in test [3], 56%; in test [4], 91%; in [5], 18%; in [6], 3%. Also, the remaining binding at 1 µM in test [7] stood at 0%; in [8], 0%; in test [9] it was 1%.
For `Cc1ccc(NC(=O)C2(C(=O)Nc3ccc(F)cc3)CC2)cc1C#Cc1cnc2c(Nc3cnn(C(C)C)c3)cccn12` [Example 78], the remaining binding at 1 µM in test [1] was 100%; in test [2], 0%; in test [3] it was 100%; in [4], 100%; in [5], 100%; in test [6], 100%. The remaining binding at 1 µM in test [7] amounted to 100%; in test [8], 89%; in test [9], 88%.
`Cc1cn(-c2cc(NC(=O)c3ccc(C)c(C#Cc4cnc5c(Nc6cnn(C)c6)cccn45)c3)cc(C(F)(F)F)c2)cn1` [Example 12, 4-methyl-N-(3-(4-methyl-1H-imidazol-1-yl)-5-(trifluoromethyl)phenyl)-3-((8-((1-methyl-1H-pyrazol-4-yl)amino)imidazo[1,2-a]pyridin-3-yl)ethynyl)benzamide]: the remaining binding at 1 µM in test [1] turned out to be 87%; in test [2], 1%; in test [3] it was 98%; in test [4], 100%; in test [5], 55%; in [6], 35%. The remaining binding at 1 µM stood at 32% in [7], 76% in test [8] and 48% in [9].
